Experimental data: US8071654B2, “Inhibitors of thromboxane formation and action” (priority 2000, dated 2011)

Target: T1, COX-2 (Homo sapiens, UniProt P35354)
T1 construct: purchased Cayman Chemicals
T1 sequence (P35354 18-604): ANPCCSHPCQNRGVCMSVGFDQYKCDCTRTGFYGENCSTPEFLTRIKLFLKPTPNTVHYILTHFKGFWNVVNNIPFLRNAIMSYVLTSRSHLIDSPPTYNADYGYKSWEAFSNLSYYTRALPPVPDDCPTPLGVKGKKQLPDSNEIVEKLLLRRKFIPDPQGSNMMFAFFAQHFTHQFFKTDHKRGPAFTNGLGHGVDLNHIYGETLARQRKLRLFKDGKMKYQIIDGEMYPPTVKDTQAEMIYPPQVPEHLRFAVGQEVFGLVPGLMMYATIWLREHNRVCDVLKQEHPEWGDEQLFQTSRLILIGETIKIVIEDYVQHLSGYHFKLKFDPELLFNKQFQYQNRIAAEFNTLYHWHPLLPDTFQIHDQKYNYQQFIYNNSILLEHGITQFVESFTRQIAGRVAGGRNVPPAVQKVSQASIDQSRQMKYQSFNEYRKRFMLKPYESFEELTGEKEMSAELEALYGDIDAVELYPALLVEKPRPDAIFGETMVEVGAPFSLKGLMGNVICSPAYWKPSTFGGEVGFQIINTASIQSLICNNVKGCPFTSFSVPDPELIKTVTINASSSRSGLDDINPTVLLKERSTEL
Experiment: COX-2 activity, 14C-arachidonic acid conversion, TLC
Assay type: biochemical
Details: for COX-2 enzyme activity (% of control values, mean ± SD): n = 3
Experimental: COX-1 and COX-2 enzyme preparations were purchased from Cayman Chemicals. Preliminary studies established that 40 U of COX-1 or COX-2 could convert about 70% of ^14C-arachidonic acid (spec. act. 55 mCi/mmol, Ontario Isotopes, Ontario, Canada; 100,000 cpm were diluted with 0.5 μg unlabeled arachidonic acid (Cayman Chemicals)/1 ml assay) into products in vitro. Different amounts of PBT-3 (10 μg and 20 μg) were added and the conversion of AA into products was assessed during a 10 min reaction in 1 ml phosphate buffer at 37°. After extraction, products were assessed by TLC (silica gel G, ethyl acetate/acetic acid, 99/1, v/v). After development, the TLC plates were scanned for radioactive products with a Berthold TLC radiochromatogram scanner and the radioactivity was quantified by scraping zones of silica gel, placing in scintillation vials, elution with 1 ml methanol and addition of scintillation medium. Radioactivity was determined by conventional counting in a beta scintillation counter.

For `CCCCC/C=C\CC1CC1[C@@H](O)/C=C\C/C=C\CCCC(=O)OC` (stereo partly drawn) [PBT-3, 10(S)-hydroxy-11,12-cyclopropyl-eicosa-5Z,8Z,14Z-trienoic acid methyl ester], the “COX-2 enzyme activity (% of control values, mean ± SD)” value (PBT-3 3.00 μM) was 109.2 ± 8.0^NS % of control, the “COX-2 enzyme activity (% of control values, mean ± SD)” value (PBT-3 30.0 μM) was 107.1 ± 14^NS % of control and the “inhibition of COX-2, in words” value (relatively large amounts of PBT-3, about 3-4 log doses greater than required to inhibit the TP receptor) was “Neither COX-1, COX-2,12-LOX nor Plase A2 was inhibited”.
